Test results: patent US9085576B2 (AMGEN INC., priority 2013, dated 2015)

How the values were obtained:
Cathepsin D (Cat D) = Cathepsin D (Cat D) (Homo sapiens (Human), UniProt P07339); experiment: In vitro enzymatic Cathepsin D (Cat D) FRET assay; format: biochemical; conditions: read-out: CatD IC50
Abeta 40 = experiment: In vivo inhibition of beta-secretase: Abeta 40 reduction in CSF and brain of the rat; conditions: after 4 hrs; for % reduction of rat CSF levels at 10 pmk / % reduction of rat brain levels at 10 mpk: 10 mpk
Source text: In Vivo Inhibition of Beta-Secretase
Several animal models, including mouse, rat, dog, and monkey, may be used to screen for inhibition of beta-secretase activity in vivo following administration of a test compound sample. […] A separate group of animals receive 2% hydroxypropyl methylcellulose, 1% Tween80 alone, containing no test compound, and serve as a vehicle-control group. At the end of the test period, animals are sacrificed and brain tissues, plasma or cerebrospinal fluid are collected. […] Homogenates are centrifuged at 355,000 g, 4° C. for 30 minutes. CSF or brain supernatants are then analyzed for the presence of A-beta peptide by specific sandwich ELISA assays based on ECL (Electrochemiluminescence) technology. For example, rat Abeta40 is measured using biotinylated-4G8 (Signet) as a capture antibody and Fab40 (an in-house antibody specific to the C-terminal of Abeta40) as a detection antibody.
Actual vehicles used: Oral: 2% HPMC, 1% Tween80, pH 2.2

[1] = biological target: Beta Secretase enzyme (BACE) (Homo sapiens (Human), UniProt P56817); experiment: In vitro enzymatic BACE FRET assay; format: biochemical; conditions: read-out: BACE1 Enzyme assay IC50
Sequence of Beta Secretase enzyme (BACE) (P56817 46-501): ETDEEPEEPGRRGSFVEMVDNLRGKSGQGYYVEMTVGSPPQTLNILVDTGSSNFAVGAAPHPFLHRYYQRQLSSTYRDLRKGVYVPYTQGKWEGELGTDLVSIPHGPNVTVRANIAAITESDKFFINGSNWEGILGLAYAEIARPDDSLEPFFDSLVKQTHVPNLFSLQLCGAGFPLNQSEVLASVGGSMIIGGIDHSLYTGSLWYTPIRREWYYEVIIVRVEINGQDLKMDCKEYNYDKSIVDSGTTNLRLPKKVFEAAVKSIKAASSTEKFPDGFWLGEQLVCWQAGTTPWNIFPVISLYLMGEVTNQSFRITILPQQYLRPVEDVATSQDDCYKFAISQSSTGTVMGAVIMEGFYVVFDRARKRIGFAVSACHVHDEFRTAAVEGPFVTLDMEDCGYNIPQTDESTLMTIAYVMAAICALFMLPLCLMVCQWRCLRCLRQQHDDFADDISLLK

BACE = BACE (Homo sapiens (Human), UniProt P56817); experiment: In vitro BACE cell-based assay (Aβ40 in conditioned medium, sandwich ELISA)
Sequence of BACE (P56817 46-501, species assumed): as the sequence (P56817 46-501) above

Sequence of Cathepsin D (Cat D) (P07339 65-412, species assumed): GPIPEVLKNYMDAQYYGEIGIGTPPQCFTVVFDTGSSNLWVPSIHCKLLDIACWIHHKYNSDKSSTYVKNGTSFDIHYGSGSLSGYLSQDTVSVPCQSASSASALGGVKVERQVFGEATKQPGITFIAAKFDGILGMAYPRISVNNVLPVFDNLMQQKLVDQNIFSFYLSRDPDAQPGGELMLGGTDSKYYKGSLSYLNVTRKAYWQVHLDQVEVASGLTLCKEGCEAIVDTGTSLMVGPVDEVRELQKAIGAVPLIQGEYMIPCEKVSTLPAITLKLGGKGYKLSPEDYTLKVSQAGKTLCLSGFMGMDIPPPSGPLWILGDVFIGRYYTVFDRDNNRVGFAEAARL

SMILES | IC50 (Cathepsin D (Cat D)) [µM] | % reduction of rat CSF levels at 10 pmk (Abeta 40; Abeta 40 in rat CSF) [%] | % reduction of rat brain levels at 10 mpk (Abeta 40; Abeta 40 in rat brain) [%] | % reduction of rat CSF levels (3 mpk) (Abeta 40; Abeta 40 in rat CSF, 3 mpk) | % reduction of rat brain levels (3 mpk) (Abeta 40; Abeta 40 in rat brain, 3 mpk) | IC50 [1] [µM] | IC50 (BACE) [µM]
N#Cc1cnc(C(=O)Nc2ccc(F)c([C@@]3(C(F)F)N=C(N)O[C@@H]4C[C@@H]43)c2)c(Cl)c1 [Example 66, N-(3-((1R,5S,6R)-3-amino-5-(difluoromethyl)-2-oxa-4-azabicyclo[4.1.0]hept-3-en-5-yl)-4-fluorophenyl)-3-chloro-5-cyanopicolinamide] | 825 | 59 | 42 | – | – | – | –
NC1=N[C@@](c2cc(NC(=O)c3ncc(Cl)cc3Cl)ccc2F)(C(F)F)[C@H]2C[C@H]2O1 [Example 71, N-(3-((1R,5S,6R)-3-amino-5-(difluoromethyl)-2-oxa-4-azabicyclo[4.1.0]hept-3-en-5-yl)-4-fluorophenyl)-3,5-dichloropicolinamide] | 478 | 80 | 73 | – | – | – | –
N#Cc1ccc(C(=O)Nc2ccc(F)c([C@@]3(C(F)F)N=C(N)O[C@@H]4C[C@@H]43)c2)nc1 [Example 77, N-(3-((1R,5S,6R)-3-amino-5-(difluoromethyl)-2-oxa-4-azabicyclo[4.1.0]hept-3-en-5-yl)-4-fluorophenyl)-5-cyanopicolinamide] | 698 | 78 | 71 | 66 (3 mpk) % | 46 (3 mpk) % | – | –
N#Cc1ccc(C(=O)Nc2ccc(Cl)c([C@@]3(C(F)F)N=C(N)O[C@@H]4C[C@@H]43)c2)nc1 [Example 93, N-(3-((1R,5S,6R)-3-amino-5-(difluoromethyl)-2-oxa-4-azabicyclo[4.1.0]hept-3-en-5-yl)-4-chlorophenyl)-5-cyanopicolinamide] | 1300 | 76 | 83 | – | – | – | –
C#C[C@H](C)Oc1cnc(C(=O)Nc2ccc(F)c([C@@]3(C(F)F)N=C(N)O[C@@H]4C[C@@H]43)c2)cn1 [Example 162, N-(3-((1R,5S,6R)-3-amino-5-(difluoromethyl)-2-oxa-4-azabicyclo[4.1.0]hept-3-en-5-yl)-4-fluorophenyl)-5-((S)-but-3-yn-2-yloxy)pyrazine-2-carboxamide] | 1060 | 11 | −7 | – | – | – | –
Cc1cc(NC(=O)c2ccc(C#N)cn2)cc([C@@]2(C(F)F)N=C(N)O[C@@H]3C[C@@H]32)c1F [Example 390, N-(3-((1R,5S,6R)-3-amino-5-(difluoromethyl)-2-oxa-4-azabicyclo[4.1.0]hept-3-en-5-yl)-4-fluoro-5-methylphenyl)-5-cyanopicolinamide] | – | 71 | 54 | – | – | – | –
COc1cnc(C(=O)Nc2cccc([C@@]3(C(F)F)N=C(N)O[C@@H]4C[C@@H]43)c2)cn1 [Example 438, N-(3-((1R,5S,6R)-3-amino-5-(difluoromethyl)-2-oxa-4-azabicyclo[4.1.0]hept-3-en-5-yl)phenyl)-5-methoxypyrazine-2-carboxamide] | 793 | – | – | – | – | 0.5 | 0.126
NC1=N[C@@](c2cc(-c3nnc(-c4ccc(F)cc4)[nH]3)ccc2F)(C(F)F)[C@H]2C[C@H]2O1 [Example 440, (1R,5S,6R)-5-(difluoromethyl)-5-(2-fluoro-5-(5-(4-fluorophenyl)-4H-1,2,4-triazol-3-yl)phenyl)-2-oxa-4-azabicyclo[4.1.0]hept-3-en-3-amine] | 250 | – | – | – | – | > 40 | > 15.6
NC1=N[C@](CF)(c2cc(NC(=O)c3ncc(Cl)cc3CF)ccc2Cl)[C@H]2C[C@H]2O1 [Example 441, N-(3-((1R,5S,6R)-3-amino-5-(fluoromethyl)-2-oxa-4-azabicyclo[4.1.0]hept-3-en-5-yl)-4-chlorophenyl)-5-chloro-3-(fluoromethyl) picolinamide] | 444 | – | – | – | – | 0.0252 | 0.0159
NC1=N[C@](CF)(c2cc(NC(=O)c3ncc(Cl)cc3F)ccc2Cl)[C@H]2C[C@H]2O1 [Example 442, N-(3-((1R,5S,6R)-3-amino-5-(fluoromethyl)-2-oxa-4-azabicyclo[4.1.0]hept-3-en-5-yl)-4-chlorophenyl)-5-chloro-3-fluoropicolinamide] | 1140 | – | – | – | – | 0.0544 | 0.0134
Cc1cc(Cl)cnc1C(=O)Nc1ccc(Cl)c([C@@]2(CF)N=C(N)O[C@@H]3C[C@@H]32)c1 [Example 443, N-(3-((1R,5S,6R)-3-amino-5-(fluoromethyl)-2-oxa-4-azabicyclo[4.1.0]hept-3-en-5-yl)-4-chlorophenyl)-5-chloro-3-methylpicolinamide] | 517 | – | – | – | – | 0.0373 | 0.0136
NC1=N[C@](CF)(c2cc(NC(=O)c3ccc(F)cn3)ccc2Cl)[C@H]2C[C@H]2O1 [Example 445, N-(3-((1R,5S,6R)-3-amino-5-(fluoromethyl)-2-oxa-4-azabicyclo[4.1.0]hept-3-en-5-yl)-4-chlorophenyl)-5-fluoropicolinamide] | 1270 | – | – | – | – | 0.29 | 0.031
N#Cc1cnc2c(Nc3ccc(F)c([C@@]4(C(F)F)N=C(N)O[C@@H]5C[C@@H]54)c3)nccc2c1 [Example 446, 8-((3-((1R,5S,6R)-3-amino-5-(difluoromethyl)-2-oxa-4-azabicyclo[4.1.0]hept-3-en-5-yl)-4-fluorophenyl)amino)-1,7-naphthyridine-3-carbonitrile] | 658 | – | – | – | – | 0.0558 | 0.107
COc1cnc2c(Nc3ccc(F)c([C@@]4(C(F)F)N=C(N)O[C@@H]5C[C@@H]54)c3)nccc2n1 [Example 447, (1R,5S,6R)-5-(difluoromethyl)-5-(2-fluoro-5-((2-methoxypyrido[3,4-b]pyrazin-5-yl)amino)phenyl)-2-oxa-4-azabicyclo[4.1.0]hept-3-en-3-amine] | 501 | – | – | – | – | 0.139 | 0.167
COc1cnc2c(Nc3ccc(F)c([C@@]4(C(F)F)N=C(N)O[C@@H]5C[C@@H]54)c3)ncc(F)c2c1 [Example 448, (1R,5S,6R)-5-(difluoromethyl)-5-(2-fluoro-5-((5-fluoro-3-methoxy-1,7-naphthyridin-8-yl)amino)phenyl)-2-oxa-4-azabicyclo[4.1.0]hept-3-en-3-amine] | 169 | – | – | – | – | 0.117 | 0.0863
NC1=N[C@@](c2cc(Nc3ncnc4cc(C(F)(F)F)cnc34)ccc2F)(C(F)F)[C@H]2C[C@H]2O1 [Example 449, (1R,5S,6R)-5-(difluoromethyl)-5-(2-fluoro-5-((7-(trifluoromethyl)pyrido[3,2-d]pyrimidin-4-yl)amino)phenyl)-2-oxa-4-azabicyclo[4.1.0]hept-3-en-3-amine] | 79.4 | – | – | – | – | 0.124 | 0.268
N#Cc1cnc(C(=O)Nc2ccc(Cl)c([C@@]3(CF)N=C(N)O[C@@H]4C[C@@H]43)c2)c(F)c1 [Example 450, N-(3-((1R,5S,6R)-3-amino-5-(fluoromethyl)-2-oxa-4-azabicyclo[4.1.0]hept-3-en-5-yl)-4-chlorophenyl)-5-cyano-3-fluoropicolinamide] | > 400 | – | – | – | – | 0.0503 | 0.00817
NC1=N[C@@](c2cc(NC(=O)c3c(F)cc(F)cc3F)ccc2F)(C(F)F)[C@H]2C[C@H]2O1 [Example 451, N-(3-((1R,5S,6R)-3-amino-5-(difluoromethyl)-2-oxa-4-azabicyclo[4.1.0]hept-3-en-5-yl)-4-fluorophenyl)-2,4,6-trifluorobenzamide] | 960 | – | – | – | – | 5.38 | 6.28
